Data reported in the supplement of paper PMC13380429.

Key:
Settings in all cases: 72 h
Caco-2 [1] = test: drug sensitivity score (DSS) for viability; higher = more toxic; extreme values may be limits of the assay
HepG2 [2] = test: as above
Calu-3 [3] = test: as above
U2OS [4] = test: as above
Vero E6 [5] = test: as above
Caco-2 [6] = test: relative viability EC50 (midpoint between 100% and the lowest measured viability); higher = less toxic
HepG2 [7] = test: as above
Calu-3 [8] = test: as above
U2OS [9] = test: as above
Vero E6 [10] = test: as above
Caco-2 [11] = test: cell viability relative to DMSO; higher = less toxic
HepG2 [12] = test: as above
Calu-3 [13] = test: as above
U2OS [14] = test: as above
Vero E6 [15] = test: as above

Structure (SMILES)	drug sensitivity score (Caco-2 [1])	drug sensitivity score (HepG2 [2])	drug sensitivity score (Calu-3 [3])	drug sensitivity score (U2OS [4])	drug sensitivity score (Vero E6 [5])	relative viability EC50 (Caco-2 [6]) [µM]	relative viability EC50 (HepG2 [7]) [µM]	relative viability EC50 (Calu-3 [8]) [µM]	relative viability EC50 (U2OS [9]) [µM]	relative viability EC50 (Vero E6 [10]) [µM]	cell viability (Caco-2 [11]; 1 nM) [%]	cell viability (Caco-2 [11]; 10 nM) [%]	cell viability (Caco-2 [11]; 100 nM) [%]	cell viability (Caco-2 [11]; 1000 nM) [%]	cell viability (Caco-2 [11]; 10000 nM) [%]	cell viability (HepG2 [12]; 1 nM) [%]	cell viability (HepG2 [12]; 10 nM) [%]	cell viability (HepG2 [12]; 100 nM) [%]	cell viability (HepG2 [12]; 1000 nM) [%]	cell viability (HepG2 [12]; 10000 nM) [%]	cell viability (Calu-3 [13]; 1 nM) [%]	cell viability (Calu-3 [13]; 10 nM) [%]	cell viability (Calu-3 [13]; 100 nM) [%]	cell viability (Calu-3 [13]; 1000 nM) [%]	cell viability (Calu-3 [13]; 10000 nM) [%]	cell viability (U2OS [14]; 1 nM) [%]	cell viability (U2OS [14]; 10 nM) [%]	cell viability (U2OS [14]; 100 nM) [%]	cell viability (U2OS [14]; 1000 nM) [%]	cell viability (U2OS [14]; 10000 nM) [%]	cell viability (Vero E6 [15]; 1 nM) [%]	cell viability (Vero E6 [15]; 10 nM) [%]	cell viability (Vero E6 [15]; 100 nM) [%]	cell viability (Vero E6 [15]; 1000 nM) [%]	cell viability (Vero E6 [15]; 10000 nM) [%]
CC(=O)OC[C@H]1O[C@@](COC(C)=O)(O[C@H]2O[C@H](COC(C)=O)[C@@H](OC(C)=O)[C@H](OC(C)=O)[C@H]2OC(C)=O)[C@@H](OC(C)=O)[C@@H]1OC(C)=O [sucrose-octaacetate]	0	0	0	0	0	> 10	> 10	> 10	> 10	> 10	102	99.6	97	93	98.4	93	100	102	103	109	102	96.3	99	103	108	95.1	89.6	97.7	102	102	98.5	100	94.1	94.6	110
O=c1cc(N2CCOCC2)oc2c(-c3ccccc3)cccc12	0.6	0.1	1.1	0	1.3	> 10	> 10	> 10	> 10	> 10	109	94.9	89	96.5	81.9	93.5	101	110	105	86.1	98	93.7	97.4	98.2	76.5	97.5	95	94.2	97.8	92.3	99.8	97.4	96.1	92.4	77.1
CCOC(=O)Nc1ccc2c(c1)N(C(=O)CCN(CC)CC)c1ccccc1S2 [ethacizin]	0	0.2	0	0	0	> 10	> 10	> 10	> 10	> 10	94.6	82.9	97.8	103	97.6	86.4	90.4	80.8	92.7	104	98.3	94.8	97.4	99.2	98.1	97.2	105	95.6	101	95.9	104	91.8	103	88.9	106
CN1C(CCl)Nc2cc(Cl)c(S(N)(=O)=O)cc2S1(=O)=O (stereo not given) [methyclothiazide]	0	0	0	0	0	> 10	> 10	> 10	> 10	> 10	101	103	104	103	94.9	96.3	96.1	106	104	105	103	91.8	97.9	105	108	104	96.9	101	98.4	102	94.3	96.6	94.8	99.4	99.7
CN1[C@@H]2C[C@@H](O)C[C@H]1[C@@H]1O[C@@H]12 [scopine]	0	0	0	0	0	> 10	> 10	> 10	> 10	> 10	104	93	96.1	98.3	105	97.2	99.7	96.7	99.8	97	102	90.1	98.8	103	103	98.4	93.4	96.1	96	102	104	108	106	106	98.8
CCN1C(=O)CNc2ncc(-c3ccc(-c4nc[nH]n4)nc3C)nc21 [CC-115]	12.7	9.3	12.8	10.5	8.7	0.411	0.894	0.4	1.11	1.04	94.7	96.4	89.2	39.8	20.5	108	102	105	57.2	25.1	106	92	91.9	37.3	21.6	100	102	99.6	59.4	6.6	108	103	103	64.4	24.8
COC(=O)Nc1ccc2[nH]cc(CCNC(C)=O)c2c1	0	0	0	0	0	> 10	> 10	> 10	> 10	> 10	96.3	95.8	94.6	98.9	105	102	94.6	98.3	96.4	91	103	96.6	98.1	97.8	97.8	98.2	104	98	97.2	96.6	99	102	103	95.3	99
O=C(CCc1ccncc1)NNC(=O)N1Cc2ccccc2Oc2ccc(Cl)cc21	0	0	0	0	0	> 10	> 10	> 10	> 10	> 10	88.1	99.1	92.7	95.6	98.4	117	106	111	99.9	107	103	96.4	97.3	87.8	95.4	96.4	103	96.8	102	100	100	98.4	101	94.9	109
CCCC[C@]1(CC)CS(=O)(=O)c2cc(CNC(CC(=O)O)CC(=O)O)c(OC)cc2[C@@H](c2ccccc2)N1	0	0	0	0	0	> 10	> 10	> 10	> 10	> 10	90	97.8	99.7	96.5	105	105	112	108	97.7	112	96.3	101	98	89.5	100	96.7	101	96.8	104	104	95.7	94.1	96.5	91.1	104
COc1ccc(NS(=O)(=O)c2sc3ccc(Cl)cc3c2C)cc1N1CCNCC1	0	0	0	0	0	> 10	> 10	> 10	> 10	> 10	98.9	98.7	104	102	96.1	108	104	106	109	87.4	104	105	108	105	98.1	99.9	96	97.2	98.5	94.5	93.3	98	97.6	94.4	103
COc1cc(N2CCOCC2)ccc1Nc1ncc(Cl)c(Nc2ccccc2NS(C)(=O)=O)n1	6.1	7.8	10.4	7.6	8.2	1.49	1.29	0.667	1.29	1.47	99.5	91.7	94.1	80.8	35.6	103	101	94.7	70.6	23.1	103	84.2	84.2	59.6	19.6	102	97.2	98.8	75	27.4	99.1	110	99.1	76.9	15.6
CC(C)[C@@H]1CC[C@@H](C)C[C@H]1O [levomenthol]	0	0	0	0	0	> 10	> 10	> 10	> 10	> 10	93.3	84.4	84.7	94.4	104	102	92.8	101	104	103	98	92.9	88.9	96.8	90.5	105	101	101	101	95.5	95.3	108	101	91.2	94.9
CCCN(CC1CC1)c1nc(C)nc(Nc2c(Cl)cc(Cl)cc2Cl)c1Cl	0	0	0	0	0	> 10	> 10	> 10	> 10	> 10	93.5	97.8	90	96.2	89.8	95.4	94	106	103	97.2	85.1	95.1	93.8	96.8	95.5	100	97.3	103	101	99.3	98.3	96.7	94.9	96.8	106
COC(=O)[C@@H]1C[C@H](OC(C)=O)C(=O)[C@H]2[C@@]1(C)CC[C@H]1C(=O)O[C@H](c3ccoc3)C[C@]21C [salvinorin-A]	0	0	0	0	0	> 10	> 10	> 10	> 10	> 10	112	112	101	101	97.2	88.2	106	105	98.2	101	110	91.3	97.5	107	109	97.9	101	93.1	97	97.3	98.5	108	106	91.8	98.4
C[C@@H]1CC(=O)c2c(ccc3c2C(=O)c2cccc(O)c2C3=O)C1 [ochromycinone]	0	1.4	0	0	0.6	> 10	> 10	> 10	> 10	> 10	107	96.1	99.6	110	112	87.4	91	96.6	96.5	76	100	104	103	104	92.8	101	100	93.9	99.7	99.9	100	100	104	93.3	85.8
